Columns and labels:
[1] = molecular target: JAK1 (Homo sapiens, UniProt P23458); conditions: cited from earlier work
[2] = Particle size distribution of SHR0302 by laser diffraction (Malvern); assay type: physicochemical; conditions: SHR0302 used in Example 1, FIG. 1
Description: In the pharmaceutical compositions of the present invention, the active ingredient is present as small particles. Particle size of the drug can be assessed using laser diffraction methods. Laser diffraction is recognized by standards and guidance agencies including ISO and ASTM and is widely used to determine particle size distributions. In conducting the assessment, the sample is passed through a laser beam, which results in laser light scattered at a range of angles. Detectors placed at fixed angles measure the intensity of light scattered at that position. A mathematical model is then applied to generate a particle size distribution. The particle size values reported herein are determined by using a liquid or wet dispersion method.
In particle size determinations, the median value is defined as the value where half of the population resides above this point, and half resides below this point. For particle size distributions the median is called the D50. The D50 is the size that splits the distribution with half above and half below this diameter. The distribution width may also be characterized by citing one, two or three values on the x-axis, typically some combination of the D10, D50, and D90. The D50, the median, has been defined above as the diameter where half of the population lies below this value. Similarly, 90 percent of the distribution lies below the D90, and 10 percent of the population lies below the D10.
A pharmaceutical composition comprising 3% SHR0302 suspended in dimethicone was prepared. The primary particle size distribution of the SHR0302 is characterized by a D10 value of less than about 0.25 μm; a D50 value of less than about 0.7 μm; and a D90 value of less than about 5 μm. The pharmaceutical composition was a transparent solution due to the particles being too small to scatter visible light. A Malvern Metasizer Model 3000 using the Hydro MV dispersion unit was used to determine the particle size distribution profile of SHR0302. […]

[3] = orally administrated, women; cited from earlier work

Chain of JAK1 (P23458 whole entry): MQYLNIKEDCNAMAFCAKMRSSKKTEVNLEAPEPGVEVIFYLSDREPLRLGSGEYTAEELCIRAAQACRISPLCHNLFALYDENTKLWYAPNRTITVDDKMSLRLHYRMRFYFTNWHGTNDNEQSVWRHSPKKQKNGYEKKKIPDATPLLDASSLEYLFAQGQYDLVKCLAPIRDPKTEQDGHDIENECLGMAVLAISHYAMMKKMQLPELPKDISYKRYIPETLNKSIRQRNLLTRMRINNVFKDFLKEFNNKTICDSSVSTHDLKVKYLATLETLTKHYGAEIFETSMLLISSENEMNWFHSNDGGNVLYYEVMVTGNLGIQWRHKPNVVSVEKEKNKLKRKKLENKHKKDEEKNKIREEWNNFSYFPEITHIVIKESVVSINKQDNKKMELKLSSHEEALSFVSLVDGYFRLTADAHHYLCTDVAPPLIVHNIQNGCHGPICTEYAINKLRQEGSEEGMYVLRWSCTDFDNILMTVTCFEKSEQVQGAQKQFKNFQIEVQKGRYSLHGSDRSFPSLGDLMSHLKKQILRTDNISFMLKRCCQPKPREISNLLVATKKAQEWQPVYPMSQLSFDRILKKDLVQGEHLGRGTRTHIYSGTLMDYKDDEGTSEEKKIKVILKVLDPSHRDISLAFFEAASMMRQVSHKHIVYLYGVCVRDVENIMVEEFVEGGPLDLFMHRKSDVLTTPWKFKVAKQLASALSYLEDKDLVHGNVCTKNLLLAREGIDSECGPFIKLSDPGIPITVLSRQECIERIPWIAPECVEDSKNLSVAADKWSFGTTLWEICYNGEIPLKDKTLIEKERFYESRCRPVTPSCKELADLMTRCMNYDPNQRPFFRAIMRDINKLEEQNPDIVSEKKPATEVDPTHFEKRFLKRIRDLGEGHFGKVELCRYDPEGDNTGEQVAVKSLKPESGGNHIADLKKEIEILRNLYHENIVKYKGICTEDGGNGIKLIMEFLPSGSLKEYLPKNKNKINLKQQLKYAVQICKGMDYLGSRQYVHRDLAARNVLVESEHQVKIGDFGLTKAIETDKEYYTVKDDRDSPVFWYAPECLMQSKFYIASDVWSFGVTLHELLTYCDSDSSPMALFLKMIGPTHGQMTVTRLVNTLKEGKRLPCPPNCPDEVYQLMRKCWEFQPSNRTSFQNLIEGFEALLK

Structure (SMILES)	inhibition of JAK1 [1]	primary particle size D10 [2]	primary particle size D50 [2]	primary particle size D90 [2]	efficacy in treatment of acne [3]
COc1nsc(NC(=O)N2C[C@H]3C[C@H](N(C)c4ncnc5[nH]ccc45)C[C@H]3C2)n1 [SHR0302, (3aR,5S,6aS)-N-(3-methoxyl-1,2,4-thiadiazol-5-yl)-5-(methyl(7H-pyrrolo[2,3-d]pyrimidin-4-yl)amino)hexahydrocyclopenta[c]pyrrole-2(1H)-carboxamide]	potent	less than 0.25 μm	less than 0.7 μm	less than 5 μm	
CC(=O)S[C@@H]1CC2=CC(=O)CC[C@]2(C)[C@H]2CC[C@@]3(C)[C@@H](CC[C@@]34CCC(=O)O4)[C@H]12 [spironolactone, 17-hydroxy-7α-mercapto-3-oxo-17α-pregn-4-ene-21-carboxylic acid γ-lactone acetate]					efficacious
